Measurements: patent US6737383B1, “Herbicidal oxadiazolidines” (priority 1999, dated 2004)

Tests used:
rape = test: Test B pre/postemergence rape; type: in vivo, Brassica napus; settings: for Rape plant response rating (0 to 10 scale): 0 is no effect
Summary of the method: (§1)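 Response is a visual 0-to-10 score relative to untreated plants, where 0 means no effect and 10 means complete control, taken twelve to sixteen days after application. Treatments went onto soil at planting and onto foliage of 1- to 4-leaf plants, using a surfactant-containing non-phytotoxic solvent.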

soybean = test: Test B pre/postemergence soybean; type: in vivo, Glycine max; settings: for Soybean plant response rating (0 to 10 scale): 0 is no effect
Summary of the method: as §1

corn = test: Test B pre/postemergence corn; type: in vivo, Zea mays; settings: for Corn plant response rating (0 to 10 scale): 0 is no effect
Summary of the method: as §1

smallflower flatsedge = test: Test B flood test smallflower flatsedge; type: in vivo, Cyperus difformis; settings: for Plant response rating, S. Flatsedge: Postemergence (flood test)
Summary of the method: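 Flood test on plants grown to the 2-leaf stage; treated plants kept in greenhouse twelve to sixteen days, then visually rated against controls on a 0 (no effect) to 10 (complete control) scale.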

[1] = Postemergence, Rate 125 g/ha, scale of 0 to 10 where 0 is no effect and 10 is complete control
[2] = Preemergence, Rate 62 g/ha, scale 0 to 10 (0 no effect, 10 complete control)
[3] = Preemergence, Rate 125 g/ha, 10 is complete control
[4] = Preemergence, Rate 250 g/ha, scale 0 to 10, 0 is no effect, 10 is complete control
[5] = Preemergence, Rate 500 g/ha, scale 0 to 10 (0 no effect, 10 complete control)
[6] = Rate 62 g/ha, Postemergence, scale of 0 to 10 where 0 is no effect and 10 is complete control
[7] = Rate 250 g/ha, Postemergence, scale 0 to 10, 0 is no effect, 10 is complete control
[8] = Rate 500 g/ha, Postemergence, scale 0 to 10
[9] = Postemergence (flood test species), Rate 125 g/ha, scale of 0 to 10 where 0 is no effect and 10 is complete control
[10] = Rate 62 g/ha, Postemergence section, flood test species, scale of 0 to 10 where 0 is no effect and 10 is complete control
[11] = Rate 250 g/ha, scale 0 to 10, 0 is no effect, 10 is complete control
[12] = Preemergence, Rate 31 g/ha, visual rating, scale 0 to 10 (0 no effect, 10 complete control)
[13] = Rate 31 g/ha, Postemergence, scale 0 to 10
[14] = Preemergence, Rate 62 g/ha, scale of 0 to 10 where 0 is no effect and 10 is complete control

| SMILES | Rape plant response rating (rape; [1]) | Rape plant response rating (rape; [2]) | Rape plant response rating (0 to 10 scale) (rape; [3]) | Rape plant response rating (rape; [4]) | Rape plant response rating (rape; [5]) | Rape plant response rating (rape; [6]) | Plant response rating, Rape (rape; [7]) | Soybean plant response rating (soybean; [1]) | Soybean plant response rating (soybean; [2]) | Soybean plant response rating (0 to 10 scale) (soybean; [3]) | Soybean plant response rating (soybean; [4]) | Soybean plant response rating (soybean; [5]) | Soybean plant response rating (soybean; [6]) | Plant response rating, Soybean (soybean; [7]) | Soybean plant response rating (soybean; [8]) | Corn plant response rating (corn; [1]) | Corn plant response rating (0 to 10 scale) (corn; [3]) | Corn plant response rating (corn; [4]) | Corn plant response rating (corn; [6]) | Plant response rating, Corn (corn; [7]) | further results |
| --- | --- | --- | --- | --- | --- | --- | --- | --- | --- | --- | --- | --- | --- | --- | --- | --- | --- | --- | --- | --- | --- |
| CC(C)N(C(=O)n1oc(=O)n(Cc2ccccc2Cl)c1=O)C1=CCCCC1 [Compound 145] | 2 | 0 | 0 | 0 | 0 | 0 | 3 | 3 | 0 | 0 | 0 | 0 | 3 | 4 | 5 | 0 | 0 | 0 | 0 | 0 | Rape plant response rating (rape; [8]): 3; Corn plant response rating (corn; [2]): 0; Corn plant response rating (corn; [5]): 0; Corn plant response rating (corn; [8]): 0; S. Flatsedge plant response rating (smallflower flatsedge; [9]): 0; S. Flatsedge plant response rating (smallflower flatsedge; [10]): 0; Plant response rating, S. Flatsedge (smallflower flatsedge; [11]): 5; S. Flatsedge plant response rating (smallflower flatsedge; Rate 500 g/ha, listed under Postemergence (flood test species), scale 0 to 10): 8 |
| Cc1noc(C)c1-n1c(=O)on(C(=O)N(c2ccc(F)cc2F)C(C)C)c1=O [Compound 156] | 0 | 0 | 0 | 0 |  | 0 | 0 | 1 | 0 | 0 | 0 |  | 1 | 1 |  | 0 | 0 | 0 | 0 | 0 | Rape plant response rating (rape; [12]): 0; Rape plant response rating (rape; [13]): 0; Soybean plant response rating (soybean; [12]): 0; Corn plant response rating (corn; [12]): 0; Corn plant response rating (corn; [2]): 0; Corn plant response rating (corn; [13]): 0; S. Flatsedge plant response rating (smallflower flatsedge; [9]): 0; S. Flatsedge plant response rating (smallflower flatsedge; [10]): 0; Plant response rating, S. Flatsedge (smallflower flatsedge; [11]): 0 |
| CCN(Cc1ccccc1)C(=O)n1oc(=O)n(C(C)C)c1=O [Compound 166] | 0 |  | 0 | 0 | 0 | 0 | 0 | 0 |  | 0 | 0 | 2 | 0 | 2 | 3 | 0 | 0 | 0 | 0 | 0 | Rape plant response rating (rape; [14]): 0; Soybean plant response rating (soybean; [14]): 0; Corn plant response rating (corn; [14]): 0; Corn plant response rating (corn; [5]): 0; Corn plant response rating (corn; [8]): 0; S. Flatsedge plant response rating (smallflower flatsedge; Rate 62 g/ha, headed Pre-emergence (flood test species), scale 0 to 10 (0 no effect, 10 complete control)): 0; S. Flatsedge plant response rating (smallflower flatsedge; Rate 125 g/ha, Pre-emergence, flood test species, scale 0 to 10 where 0 is no effect and 10 is complete control): 0; S. Flatsedge plant response rating (smallflower flatsedge; Rate 250 g/ha, Pre-emergence, flood-test species, scale 0 to 10, 0 is no effect, 10 is complete control): 0; S. Flatsedge plant response rating (smallflower flatsedge; Rate 500 g/ha, Pre-emergence, flood test species, scale 0 to 10 (0 no effect, 10 complete control)): 0 |
